Blank lines part the entries; values can stand above or below the molecule they belong to. Calls of active or inactive are those of the source.
Assays:
[1] = Late stage results for the probe development effort to identify inhibitors of Plasmodium falciparum gametocytes: Luminescence-based cell-based high throughput dose response assay to identify inhibitors of viability of late stage Plasmodium falciparum gametocytes.; type: functional
[2] = reduction of Shn3 3'UTR firefly luciferase signal, dose response, Schnurri-3 inhibitor project, cell-based, Clone20 osteoblasts, cherry-pick, set 2 (AID 720490); type: functional;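 note: actives lower the luminescence signal as inhibitors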
[3] = Shn3 3'UTR reporter inhibitors, dose response, cell-based, Clone20 osteoblasts, firefly luciferase, cherry-picked (AID 624132); type: functional;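 note: firefly luciferase luminescence from reporter carrying the Shn3 3'UTR in osteoblasts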
[4] = control 3'UTR Renilla luciferase suppression, dose response, counter-screen for Shn3 inhibitor project, cell-based, Clone20-Shn3RL, cherry-picked (AID 624133); type: functional
[5] = HepG2 cell cytotoxicity, dose response, cytotoxicity control for Shn3 inhibitor project, CellTiter-Glo, cherry-picked (AID 624134); type: functional, cell-based
[6] = inhibitors of control Renilla luciferase reporter, dose response, counter-screen for Shn3 3'UTR targeting project, Clone20-Shn3RL cells, dual-Glo, cherry-pick, set 2 (AID 720724); type: functional, cell-based; details: Dual-Go Shn3RL
[7] = inhibitors of Vif binding to APOBEC3G peptide, primary screen, biochemical, TR-FRET, GST-Vif 1-94, biotin-A3G peptide, dose response retest (AID 1117319); type: functional;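 note: TR-FRET signal of purified GST-Vif binding a biotinylated A3G peptide; inhibitors lower the FRET signal by blocking Vif and A3G binding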
[8] = Glucagon-like peptide 1 release potency, NCI-H716 cell line, dose-response, half-maximal inhibitory concentration (AID 1117344); type: functional, cell-based
[9] = half-maximal inhibitory concentration for glucagon-like peptide-1 release, STC-1 cell line, dose-response (AID 1117345); type: functional, cell-based
Streptococcus = assay: Group A Streptococcus viability loss, dose response, counter-screen for streptokinase expression inhibitor project, luminescence, BacTiterGlo (AID 1915); type: functional, organism-based;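 note: potency for reduction of bacterial viability or growth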
Genome polyprotein = Genome polyprotein (Hepatitis C virus, UniProt Q2Q167); assay: HCV core protein dimerization inhibitors, dose response, biochemical, TR-FRET (AID 2159); parameters: species or system Hepacivirus hominis;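 note: blocks dimerization of HCV core protein measured by TR-FRET between tagged core106 pairs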
[10] = test system: Streptococcus sp. 'group A'; assay: growth inhibition of control SK(-) GAS strain, dose response, counter-screen for streptokinase expression inhibitor project, luminescence, kanamycin, BacTiterGlo, confirmation (AID 1900); type: functional, organism-based
Beta-galactosidase = Beta-galactosidase (Escherichia coli, UniProt Q8VNN2); assay: beta-galactosidase enzyme inhibitors and activators, dose response, artefact control for CCR6 antagonist project, biochemical, E. coli enzyme, set 3 (AID 504712); type: functional
[11] = biological target: DNA (cytosine-5)-methyltransferase 1 (Homo sapiens, UniProt P26358); assay: DNMT1 methyltransferase inhibitors, confirmation, biochemical, fluorescent molecular beacon (AID 602386); type: functional
Cysteine protease ATG4B = biological target: T1, Cysteine protease ATG4B (Homo sapiens, UniProt Q9Y4P1); type: functional;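 note: Fluorescence-based dose-response confirmation assay measuring inhibition of ATG4B activity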
T1 sequence (Q9Y4P1 whole entry): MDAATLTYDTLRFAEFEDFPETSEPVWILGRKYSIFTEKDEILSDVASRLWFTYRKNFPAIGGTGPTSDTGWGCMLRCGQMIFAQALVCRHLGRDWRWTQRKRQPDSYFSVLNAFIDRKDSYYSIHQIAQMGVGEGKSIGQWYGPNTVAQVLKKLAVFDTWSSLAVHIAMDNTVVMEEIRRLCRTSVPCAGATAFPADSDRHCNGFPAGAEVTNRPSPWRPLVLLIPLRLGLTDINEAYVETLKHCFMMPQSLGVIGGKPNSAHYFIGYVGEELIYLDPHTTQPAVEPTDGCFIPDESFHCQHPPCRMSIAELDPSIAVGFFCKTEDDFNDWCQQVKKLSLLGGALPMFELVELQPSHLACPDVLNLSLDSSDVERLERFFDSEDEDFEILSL

Bcl-2-like protein 10 = biological target: T2, Bcl-2-like protein 10 (Homo sapiens, UniProt Q9HD36); assay: displacers of TR3 peptide from Bcl-B, primary screen, selectivity assay for Bfl-1 inhibitor project, biochemical, fluorescence polarization, FITC-TR3 peptide (AID 748);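 note: fluorescence polarization from a fluorescein-labelled TR3 peptide binding purified Bcl-B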
T2 sequence (Q9HD36 whole entry): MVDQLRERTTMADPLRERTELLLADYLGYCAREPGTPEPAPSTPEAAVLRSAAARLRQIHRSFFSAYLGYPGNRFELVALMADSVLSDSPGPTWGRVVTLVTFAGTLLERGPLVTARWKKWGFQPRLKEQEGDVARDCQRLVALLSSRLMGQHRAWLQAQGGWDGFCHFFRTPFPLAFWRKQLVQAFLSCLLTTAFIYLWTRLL

[12] = biological target: Induced myeloid leukemia cell differentiation protein Mcl-1 (Homo sapiens, UniProt Q07820); type: functional
Phospholipase A2 = Phospholipase A2 (Homo sapiens, UniProt P04054); type: functional;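 note: confirmatory dose-response counterscreen on phospholipase A2, testing hits that came from an ultra-high-throughput screen for ATG4B inhibitors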
NADPH oxidase 1 = NADPH oxidase 1 (Homo sapiens, UniProt Q9Y5S8); assay: Late-stage luminescence-based cell-based dose response assay to identify inhibitors of NADPH oxidase 1 (NOX1): Synthesized analogs.; type: functional
[13] = biological target: Complement C1s subcomponent (Homo sapiens, UniProt P09871); assay: Complement C1s ELISA. [Related pubchem assays: 538, 787 ]; type: functional
Prothrombin = Prothrombin (Homo sapiens, UniProt P00734); assay: Thrombin 1536 HTS Dose Response Confirmation. [Related pubchem assays: 1046 (Thrombin 1536 HTS; hits were confirmed in this assay)]; type: functional
[14] = IOSE-T80 ovarian epithelial cell cytotoxicity, dose response, cytotoxicity control for PAX8 inhibitor project, plate reader, dry powder samples (AID 743045); type: functional, cell-based
[15] = cytotoxicity in OV-90 ovarian cancer cells, dose response, PAX8 inhibitor project, cell-based, plate reader, dry powder, SA8 (AID 743149); type: functional
[16] = non-specific cell cytotoxicity, dose response, cytotoxicity control for PAX8 inhibitor project, plate reader, dry powder samples (AID 743021); type: functional, cell-based
[17] = PAX2 cell-based inhibition, dose response, selectivity assay for PAX8 inhibitor project, plate reader, dry powder samples (AID 743048); type: functional;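 note: HEK293 cells carrying a WT1 promoter luciferase reporter driven by expressed Pax2; potency is for inhibition of Pax2 driven reporter signal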
Paired box protein Pax-8 = Paired box protein Pax-8 (Homo sapiens, UniProt Q06710); assay: inhibitors of PAX8-driven TPO luciferase reporter, dose response, RMG-I cells, cherry-pick (AID 687027); type: functional, cell-based;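 note: luciferase reporter driven by Pax8 target thyroperoxidase promoter measured by SteadyGlo luminescence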
[18] = cytotoxicity in COV434 cells, dose response, cytotoxicity control for PAX8 inhibitor project, cell-based, plate reader, dry powder, SA7 (AID 743145); type: functional
[19] = cytotoxicity in OVCAR4 cells, dose response, cytotoxicity control for PAX8 inhibitor project, cell-based, plate reader, dry powder, SA11 (AID 743150); type: functional; details: OVCAR-4
[20] = IGROV1 ovarian cancer cell cytotoxicity, dose response, PAX8 inhibitor project, plate reader, dry powder samples (AID 743043); type: functional, cell-based; details: IGROV-1
[21] = PAX5 activity inhibitors, dose response, selectivity assay for PAX8 inhibitor project, cell-based, plate reader, dry powder samples (AID 743047); type: functional;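 note: HEK293 cells carrying a Pax5 driven CD19 promoter luciferase reporter; potency of inhibitors that lower reporter luminescence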
[22] = NIH:OVCAR-3 ovarian cancer cell cytotoxicity, dose response, PAX8 inhibitor project, plate reader, dry powder samples (AID 743044); type: functional, cell-based
[23] = cytotoxicity in COV362 ovarian cancer cells, dose response, cytotoxicity control for PAX8 inhibitor project, cell-based, plate reader, dry powder, SA12 (AID 743144); type: functional

Sequence of Induced myeloid leukemia cell differentiation protein Mcl-1 (Q07820 whole entry): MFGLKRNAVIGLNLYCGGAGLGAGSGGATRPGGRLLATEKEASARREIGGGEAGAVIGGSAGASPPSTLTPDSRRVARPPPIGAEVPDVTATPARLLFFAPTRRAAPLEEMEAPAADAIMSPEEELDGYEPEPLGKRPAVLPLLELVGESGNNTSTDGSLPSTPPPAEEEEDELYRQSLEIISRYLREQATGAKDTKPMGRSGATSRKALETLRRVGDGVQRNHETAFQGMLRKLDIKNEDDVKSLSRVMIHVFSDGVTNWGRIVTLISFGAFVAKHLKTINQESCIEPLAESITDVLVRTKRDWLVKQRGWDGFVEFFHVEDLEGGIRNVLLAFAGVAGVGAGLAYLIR
Sequence of DNA (cytosine-5)-methyltransferase 1 (P26358 whole entry): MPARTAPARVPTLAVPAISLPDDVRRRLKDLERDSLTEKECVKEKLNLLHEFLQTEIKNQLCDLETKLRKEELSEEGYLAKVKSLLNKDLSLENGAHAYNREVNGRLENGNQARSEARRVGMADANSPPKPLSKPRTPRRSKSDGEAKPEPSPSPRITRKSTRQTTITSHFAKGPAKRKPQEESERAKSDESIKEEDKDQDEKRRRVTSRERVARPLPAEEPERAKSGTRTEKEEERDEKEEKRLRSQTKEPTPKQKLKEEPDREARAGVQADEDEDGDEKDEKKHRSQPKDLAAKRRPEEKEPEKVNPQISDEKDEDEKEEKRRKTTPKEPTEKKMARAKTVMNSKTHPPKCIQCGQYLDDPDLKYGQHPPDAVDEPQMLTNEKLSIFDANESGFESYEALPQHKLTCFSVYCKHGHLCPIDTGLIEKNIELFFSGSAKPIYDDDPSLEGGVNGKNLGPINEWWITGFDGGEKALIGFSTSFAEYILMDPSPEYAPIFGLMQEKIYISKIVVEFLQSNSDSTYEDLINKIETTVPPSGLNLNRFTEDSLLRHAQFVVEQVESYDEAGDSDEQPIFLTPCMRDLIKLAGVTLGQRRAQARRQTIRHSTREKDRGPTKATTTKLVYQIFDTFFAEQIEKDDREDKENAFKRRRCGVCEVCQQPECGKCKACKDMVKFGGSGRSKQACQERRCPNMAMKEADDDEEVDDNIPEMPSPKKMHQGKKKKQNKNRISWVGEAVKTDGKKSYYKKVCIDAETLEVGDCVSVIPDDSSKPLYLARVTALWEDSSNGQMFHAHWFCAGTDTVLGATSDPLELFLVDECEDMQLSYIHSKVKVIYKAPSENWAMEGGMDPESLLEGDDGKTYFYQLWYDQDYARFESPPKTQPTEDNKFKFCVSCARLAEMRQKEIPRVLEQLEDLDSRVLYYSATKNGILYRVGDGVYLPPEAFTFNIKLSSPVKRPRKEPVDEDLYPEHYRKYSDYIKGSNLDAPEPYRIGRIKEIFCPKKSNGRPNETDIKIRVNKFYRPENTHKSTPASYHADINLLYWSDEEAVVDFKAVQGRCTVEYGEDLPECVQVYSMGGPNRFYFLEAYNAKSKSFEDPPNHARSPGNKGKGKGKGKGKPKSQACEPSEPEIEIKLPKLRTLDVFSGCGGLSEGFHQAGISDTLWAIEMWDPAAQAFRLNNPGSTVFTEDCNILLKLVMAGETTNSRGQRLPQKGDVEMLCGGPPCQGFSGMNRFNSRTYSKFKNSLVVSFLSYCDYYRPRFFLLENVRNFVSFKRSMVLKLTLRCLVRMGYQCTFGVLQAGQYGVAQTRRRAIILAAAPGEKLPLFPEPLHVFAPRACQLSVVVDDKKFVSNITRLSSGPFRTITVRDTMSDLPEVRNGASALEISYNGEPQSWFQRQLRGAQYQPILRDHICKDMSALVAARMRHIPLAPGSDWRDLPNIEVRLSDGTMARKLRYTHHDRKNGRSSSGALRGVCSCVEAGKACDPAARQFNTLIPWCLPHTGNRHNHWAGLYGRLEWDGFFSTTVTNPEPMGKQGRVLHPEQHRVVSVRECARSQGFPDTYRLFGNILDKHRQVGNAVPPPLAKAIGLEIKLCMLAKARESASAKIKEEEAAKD
Sequence of Genome polyprotein (Q2Q167 whole entry): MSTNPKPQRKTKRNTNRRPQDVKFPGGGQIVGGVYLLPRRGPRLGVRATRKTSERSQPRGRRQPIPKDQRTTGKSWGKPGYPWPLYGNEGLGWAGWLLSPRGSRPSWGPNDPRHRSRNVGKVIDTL
Sequence of Complement C1s subcomponent (P09871 16-437 limits assumed): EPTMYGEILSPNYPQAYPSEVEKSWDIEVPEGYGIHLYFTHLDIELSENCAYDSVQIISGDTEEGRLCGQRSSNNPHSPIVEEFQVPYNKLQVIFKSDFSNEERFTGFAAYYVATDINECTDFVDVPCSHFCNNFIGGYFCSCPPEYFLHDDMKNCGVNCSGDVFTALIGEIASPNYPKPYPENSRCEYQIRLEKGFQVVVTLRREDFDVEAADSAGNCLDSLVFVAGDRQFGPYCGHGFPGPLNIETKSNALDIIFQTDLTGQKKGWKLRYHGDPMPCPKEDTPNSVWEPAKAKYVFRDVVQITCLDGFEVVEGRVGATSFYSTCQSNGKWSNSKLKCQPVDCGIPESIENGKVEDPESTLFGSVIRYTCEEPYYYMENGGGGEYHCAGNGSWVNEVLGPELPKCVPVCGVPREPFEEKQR
Sequence of Complement C1s subcomponent (P09871 438-688 limits assumed): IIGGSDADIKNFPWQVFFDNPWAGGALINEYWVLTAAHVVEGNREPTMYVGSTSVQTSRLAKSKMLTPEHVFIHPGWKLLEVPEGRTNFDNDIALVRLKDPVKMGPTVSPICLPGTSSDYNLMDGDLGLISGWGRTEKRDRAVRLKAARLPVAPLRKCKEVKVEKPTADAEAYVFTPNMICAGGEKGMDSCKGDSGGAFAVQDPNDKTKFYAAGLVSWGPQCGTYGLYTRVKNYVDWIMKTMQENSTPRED
Sequence of NADPH oxidase 1 (Q9Y5S8 whole entry): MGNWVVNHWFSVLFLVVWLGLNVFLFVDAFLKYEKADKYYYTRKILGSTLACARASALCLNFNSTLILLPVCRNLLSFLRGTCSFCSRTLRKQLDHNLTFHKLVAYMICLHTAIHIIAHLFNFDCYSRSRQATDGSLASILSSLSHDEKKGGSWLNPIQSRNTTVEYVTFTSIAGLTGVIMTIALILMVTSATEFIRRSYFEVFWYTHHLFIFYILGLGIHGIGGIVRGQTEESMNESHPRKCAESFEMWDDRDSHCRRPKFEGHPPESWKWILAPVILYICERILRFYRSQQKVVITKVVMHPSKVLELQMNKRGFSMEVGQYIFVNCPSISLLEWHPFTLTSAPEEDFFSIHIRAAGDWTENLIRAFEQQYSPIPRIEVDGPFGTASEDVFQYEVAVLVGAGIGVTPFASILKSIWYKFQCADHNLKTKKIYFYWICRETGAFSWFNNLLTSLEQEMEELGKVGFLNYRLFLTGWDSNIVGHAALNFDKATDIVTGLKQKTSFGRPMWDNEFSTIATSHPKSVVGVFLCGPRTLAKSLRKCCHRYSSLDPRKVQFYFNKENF
Sequence of Phospholipase A2 (P04054 whole entry): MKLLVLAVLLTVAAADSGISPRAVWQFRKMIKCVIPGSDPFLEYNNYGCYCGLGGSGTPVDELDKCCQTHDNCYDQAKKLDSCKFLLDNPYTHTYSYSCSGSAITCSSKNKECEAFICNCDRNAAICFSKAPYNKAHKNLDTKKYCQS
Sequence of Beta-galactosidase (Q8VNN2 whole entry): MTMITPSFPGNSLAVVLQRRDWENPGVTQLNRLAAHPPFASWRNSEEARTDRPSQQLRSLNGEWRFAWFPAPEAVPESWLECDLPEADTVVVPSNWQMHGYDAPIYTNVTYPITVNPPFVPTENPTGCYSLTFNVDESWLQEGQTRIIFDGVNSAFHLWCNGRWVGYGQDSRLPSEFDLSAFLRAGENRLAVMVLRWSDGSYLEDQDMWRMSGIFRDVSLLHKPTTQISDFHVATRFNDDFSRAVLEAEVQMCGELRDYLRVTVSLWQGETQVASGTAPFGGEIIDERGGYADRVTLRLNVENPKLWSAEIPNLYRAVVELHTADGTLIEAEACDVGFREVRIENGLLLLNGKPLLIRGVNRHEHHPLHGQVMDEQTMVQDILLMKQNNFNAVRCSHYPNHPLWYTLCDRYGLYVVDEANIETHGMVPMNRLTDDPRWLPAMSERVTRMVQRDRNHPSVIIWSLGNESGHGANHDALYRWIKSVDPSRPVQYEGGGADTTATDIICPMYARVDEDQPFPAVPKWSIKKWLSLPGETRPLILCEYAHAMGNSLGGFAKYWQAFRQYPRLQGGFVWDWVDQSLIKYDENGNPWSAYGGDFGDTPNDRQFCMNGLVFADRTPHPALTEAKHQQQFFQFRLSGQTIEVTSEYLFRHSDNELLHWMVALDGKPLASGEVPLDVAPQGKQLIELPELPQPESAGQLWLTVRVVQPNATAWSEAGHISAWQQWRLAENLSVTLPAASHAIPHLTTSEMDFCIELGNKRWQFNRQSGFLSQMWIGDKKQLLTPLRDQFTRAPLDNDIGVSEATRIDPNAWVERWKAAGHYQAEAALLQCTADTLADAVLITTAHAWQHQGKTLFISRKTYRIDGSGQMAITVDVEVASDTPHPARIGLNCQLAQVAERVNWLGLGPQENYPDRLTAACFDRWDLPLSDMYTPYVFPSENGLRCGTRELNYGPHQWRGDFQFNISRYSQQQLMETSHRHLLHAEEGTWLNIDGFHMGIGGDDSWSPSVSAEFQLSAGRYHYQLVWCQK
Sequence of Paired box protein Pax-8 (Q06710 whole entry): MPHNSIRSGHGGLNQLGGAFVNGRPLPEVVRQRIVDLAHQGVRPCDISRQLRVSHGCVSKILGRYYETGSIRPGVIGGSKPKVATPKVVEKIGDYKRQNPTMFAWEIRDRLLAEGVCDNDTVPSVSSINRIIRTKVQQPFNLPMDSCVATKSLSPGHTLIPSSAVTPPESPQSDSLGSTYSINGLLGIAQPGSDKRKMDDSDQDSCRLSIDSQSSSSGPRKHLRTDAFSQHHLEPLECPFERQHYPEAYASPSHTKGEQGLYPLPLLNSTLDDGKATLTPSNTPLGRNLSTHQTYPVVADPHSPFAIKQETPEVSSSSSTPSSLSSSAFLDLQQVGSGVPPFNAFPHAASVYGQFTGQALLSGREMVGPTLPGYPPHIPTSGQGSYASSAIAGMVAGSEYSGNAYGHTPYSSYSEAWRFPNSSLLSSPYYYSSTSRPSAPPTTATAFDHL

SMILES: O=C(Nc1nccs1)c1cc(-c2ccccc2)nn1-c1ccccc1
IC50 [1]: > 37.2 µM (inactive)

SMILES: CCOc1cc(CNCCc2ccc(S(N)(=O)=O)cc2)ccc1OCc1ccccc1
AC50 [2]: 3.56 µM (active)
AC50 [3]: 2.44 µM (active)
AC50 [4]: 25.5 µM (active)
AC50 [5]: > 70 µM (inactive)
AC50 [6]: 31.9 µM (active)

IC50 [7]: > 100 µM (active)
SMILES: COc1cccc(-c2cc(C(=O)Nc3cnn(Cc4ccccc4C)c3)no2)c1

SMILES: Oc1cccc2cccnc12
IC50 [8]: > 40 µM (inactive)
IC50 [9]: > 20 µM (inactive)

SMILES: CCOc1cc(/C=C2\C(=O)N(c3nc(-c4ccc(Br)cc4)cs3)N=C2c2ccccc2)ccc1O
EC50 (Streptococcus): 3.67 µM (active)
IC50 (Genome polyprotein): > 49.8 µM (not active)
EC50 [10]: 1.78 µM (active)
IC50 (Beta-galactosidase): > 66.6 µM (inactive)
IC50 [11]: 4.35 µM (active)
IC50 (Cysteine protease ATG4B): 5.08 µM (active)
IC50 (Bcl-2-like protein 10): 43.8 µM (active)
IC50 [12]: 2.54 µM (active)
IC50 (Phospholipase A2): 6.97 µM (active)

IC50 (NADPH oxidase 1): 6.37 µM (active)
SMILES: O=C(c1ccco1)N1c2ccccc2Sc2ccccc21

IC50 [13]: > 50 µM (not active)
IC50 (Prothrombin): 1.14 µM (active)
SMILES: COc1ccc(-c2nc(SC)n(C(=O)c3ccco3)n2)cc1

SMILES: Cc1ccccc1CNC(=O)C1CCCN(c2nnc(C)c3c(C)n(-c4ccccc4)nc23)C1 (configuration not stated)
AC50 [14]: 91.9 µM (active)
AC50 [15]: 9.9 µM (active)
AC50 [16]: < 29.5 µM (active)
AC50 [17]: 4.18 µM (active)
AC50 (Paired box protein Pax-8): 5.95 µM (active)
AC50 [18]: 98.3 µM (active)
AC50 [19]: 61.3 µM (active)
AC50 [20]: 32.4 µM (active)
AC50 [21]: 24 µM (active)
AC50 [22]: 42.8 µM (active)
AC50 [23]: 42.3 µM (active)

— ChEMBL document CHEMBL1201862, “PubChem BioAssay data set” (2004)
